In patent US5443967A, “DNA encoding the cancer associated SCM recognition factor” (priority 1993, dated 1995):
“Also recorded” adds a separate entry of the source. *1 amine or outer side, *2 acyl side, *3 side chain or, on linkers, in order; H or OH if unused. Where a SMILES comes first, the peptide text is derived from it. Bridges are numbered along the chain shown (N, C = ends). Roman numbers before positions name the chains, in order. Where no end group is shown, it is not given here. [ ]: non-standard residue; d: D form. Actinocin(9to1) = Cc1c2oc3c(C)ccc(C(=O)[*:1])c3nc-2c(C(=O)[*:2])c(N)c1=O; NMeV = CN[C@H](C(=O)O)C(C)C; Sar = CNCC(=O)O

Tests used:
[1] = test system: SCM-responding lymphocytes from healthy donors; test: Modification/induction of SCM response of lymphocytes from healthy donors by preincubation with SCM factor; type: cell-based, human; conditions: 10 μg/5×10^6 cells during incubation with synthetic SCM factor
Experimental: 10, 1986, and entitled "Automated Collection of Buoyant Density Specific Cells from Density Gradients." Aliquots of these cells were incubated in 3 ml of the following: (a) cell-free blood plasma from cancer patients; (b) plasma from cancer patients ultrafiltered for 12 hours through an Amicon™ UM2 filter with a molecular weight cutoff of 1000 daltons; (c) plasma from cancer patients ultrafiltered for 12 hours through an Amicon™ UM5 filter with a nominal molecular weight cutoff of 500 daltons; (d) general cancer-associated SCM factor as purified through the desalting or Sephadex G-10 column stage; (e) the factor as purified through the Sephadex G-50 column stage; (f) the factor as purified through the DEAE-cellulose column step; (g) the factor as finally purified through the RP-HPLC step; and (h) plasma from healthy donors ultrafiltered through an Amicon™ UM2 filter with a nominal molecular weight cutoff of 1000 daltons. […]
Before being contacted with either a mitogen or with the SCM factor for determination of the RRSCM the incubated cells were thoroughly washed. The presence or absence of modification was determined by the ratio of the polarization value of the lymphocyte suspension after a short contact period with substrates containing the SCM factor over the polarization value of the lymphocyte suspension after a short contact period with phytohaemagglutinin (PHA). […]

MCF7 breast cancer cells = test: SCM factor in cultured cancer cells by noncompetitive ELISA; type: cell-based, human
Experimental: (§1) The SCM factors secreted from human cancer cells in culture whose amino acid sequences were presented in Example 24 also reacted with the anti-SCM antibody of Example 20. A variation on the ELISA assay of Example 21 was used. In this version of the ELISA assay, the assay was performed directly on the eluate from the RP-HPLC purification step that remained adsorbed to the Eppendorf™ collection tubes after loading of the bulk of the eluates onto the sequenator disk. No other SCM factor was added, and there was no additional sample added to the assay. This version of the SCM ELISA assay is noncompetitive; the larger is the quantity of SCM factor adsorbed to the Eppendorf™ tubes, the higher is the measured A405. The results, shown in Table 15, clearly indicate the presence of material able to react with anti-SCM antibody in these fractions.
(§2) Human cancer cells in culture were directly shown to contain SCM-factor molecules by antibody reactivity. Washed cells from monolayered cultures of several human cancer cells: MCF7 breast cancer cells; T1080 fibrosarcoma cells; A2780 ovarian cancer cells; and HCT80 colon cancer cells, were assayed directly by the noncompetitive ELISA assay procedure of Example 25.
As shown in Table 17 of Example 26, treatment of human cultured cancer cells with cycloheximide, an inhibitor of protein synthesis, decreases the amount of SCM factor produced by these cells. […] The amounts of SCM factor per 7×10^6 cells in the presence or absence of 10^-3 molar ascorbic acid after a 16-hour incubation were measured by the noncompetitive ELISA procedure of Example 25. The aliquot of cancer cells incubated in the presence of ascorbate ions produced 43.9% less SCM factor than untreated control cells.

T1080 fibrosarcoma cells = test: as above; type: cell-based, human
Experimental: as §1, §2

[2] = test system: SCM-responding lymphocytes; conditions: from prior applications Ser. No. 07/167,007 and 07/163,250; cited from earlier work
[3] = test system: K 562 human myeloid cell line; test: Natural lymphocyte cytotoxicity against K 562 cells (51Cr release); type: cell-based; conditions: for Percent Cytotoxicity: PBL, 35 femtomoles, 2.5 hours 37° C., 40:1; for Percent Cytotoxicity: Treated & Washed Lymphocytes: 35 femtomoles per lymphocyte, effector/target 40:1
Experimental: Aliquots of these lymphocytes were also retained as controls and not incubated. In addition, potentially SCM-responding lymphocytes were obtained from donors having cancer, and treated in the same manner-some aliquots incubated with plasma containing SCM factor and others retained as controls and not incubated.
After incubation the cytotoxicity of the lymphocytes was tested in accordance with the method described in M. R. Potter and M. Moore, "Natural Cytotoxic Reactivity of Human Lymphocyte Subpopulations," Immunology 37, 187-194 (1979). In accordance with this published method cells of the K 562 human myeloid cell line labeled with ^51 Cr were used as target cells for the assay. The potentially SCM-responding lymphocytes were used as the effector cells. The ratio of target cells to effector cells was 1 to 20. […] The percent of cytotoxicity is determined as follows: [formula] where RS is the percent of ^51 Cr release in the sample, RC the percent of ^51 Cr release in the control and RT is the percent of ^51 Cr release in the presence of a detergent, Triton X-100. […] When the incubation was performed with potentially SCM-responding lymphocytes from cancer patients, the decrease in cytotoxicity was smaller, between 40 and 90%. […] The lower level of cytotoxicity present in cells from cancer patients was consistent with a decrease of such cytotoxicity caused by in vivo exposure to factors such as the cancer-associated SCM recognition factor.
The purified synthetic SCM factor molecule and peptides F1-F5, F7, and F8, as described above in Example 16, were investigated to determine their suppressive effect on the natural cytotoxicity of lymphocytes against cancer cells, using the human myeloid cell line K 562 as target as measured by the conventional ^51 Cr release method (Example 13).
In brief, the K 562 target cells grown in suspension in RPMI-FBS culture medium were washed and labeled for 3 hours at 37° C. with 100 μCi sodium [^51 Cr]chromate and then washed 4 times in RPMI growth medium. The effector lymphocytes used were isolated from heparinized peripheral blood of normal healthy donors using either appropriate density solutions to isolate the SCM-responding subpopulation of lymphocytes, as described above under "Isolation of SCM-responding Lymphocytes," or the conventional separation medium Histopaque 1077 for isolation of the total population of peripheral blood lymphocytes (PBL). The effector cell to target cell ratio used in these experiments was 40:1. Control samples contained target cells only and were used to determine background isotope release from the target cells. The test samples contained 0.2 mL aliquots of labeled target cells to which 0.2 mL of effector lymphocytes was added; the effector lymphocytes were either untreated or had been pretreated with either the entire synthetic SCM factor or any of the fragments designated F1 to F5, F7, or F8 for 2.5 hours at 37° C. The tests were carries out in triplicate. Cell suspensions were incubated for 18 hours at 37° C. in an atmosphere of 95% air and 5% CO2. Samples were then centrifuged for 10 minutes at 200 xg. From each test sample tube, a 0.2 mL aliquot of the supernatant was removed. Both the supernatant and the remaining cell pellet were counted in a Beckman gamma counter. The maximum possible isotope release was taken as the count obtained by adding the counts for the supernatant and cell pellets. The percentage of ^51 Cr release was determined for each of the triplicate samples; using the mean value of ^51 Cr release, the percentage of cytotoxicity was calculated according to the equation presented in Table 25.

[4] = cycloheximide 50 μg/10^6 cells, 16 hrs
[5] = experiment with untreated control 46.5 ± 1.5
[6] = experiment with untreated control 72.7 ± 1.2
[7] = experiment with untreated control 80.4 ± 1.0
[8] = experiment with untreated control 71.2 ± 1.5

Cc1c2oc3c(C)ccc(C(=O)N[C@@H]4C(=O)N[C@H](C(C)C)C(=O)N5CCC[C@H]5C(=O)N(C)CC(=O)N(C)[C@@H](C(C)C)C(=O)O[C@@H]4C)c3nc-2c(C(=O)N[C@@H]2C(=O)N[C@H](C(C)C)C(=O)N3CCC[C@H]3C(=O)N(C)CC(=O)N(C)[C@@H](C(C)C)C(=O)O[C@@H]2C)c(N)c1=O [Actinomycin D, actinomycin D] (I: T[dV]P[Sar][NMeV] / II: T[dV]P[Sar][NMeV]; ester I:1-I:C, II:1-II:C; linker I:N-II:N via Actinocin(9to1))
induction of response to synthetic SCM factor in presence of protein synthesis inhibitor [1]: no response to synthetic SCM factor was induced

C[C@@H]1C[C@@H]([C@H](O)CC2CC(=O)NC(=O)C2)C(=O)[C@@H](C)C1 [Cycloheximide, cycloheximide]
induction of response to synthetic SCM factor in presence of protein synthesis inhibitor [1]: no response to synthetic SCM factor was induced | Corrected A405 As % of Control (MCF7 breast cancer cells; cycloheximide 20 μg/10^6 cells, 3 hrs): 91.2 % of Control | Corrected A405 (SCM factor synthesis) (MCF7 breast cancer cells; cycloheximide 20 μg/10^6 cells, 3 hrs, control 2.0716): 1.8893 | Corrected A405 As % of Control (MCF7 breast cancer cells; [4]): 74.7 % of Control | Corrected A405 (SCM factor synthesis) (MCF7 breast cancer cells; cycloheximide 50 μg/10^6 cells, 16 hrs, control 0.9654): 0.7217 | decrease of concentration of SCM factor associated with the cells (MCF7 breast cancer cells; cycloheximide treatment): 25.3% | Corrected A405 As % of Control (T1080 fibrosarcoma cells; [4]): 66.0 % of Control | Corrected A405 (SCM factor synthesis) (T1080 fibrosarcoma cells; cycloheximide 50 μg/10^6 cells, 16 hrs, control 1.5060): 0.9940 | decrease of concentration of SCM factor associated with the cells (T1080 fibrosarcoma cells; cycloheximide treatment): 34%

O=C1O[C@H]([C@@H](O)CO)C(O)=C1O [L-ascorbic acid]
Corrected ELISA A405 (SCM factor synthesis) (MCF7 breast cancer cells; 1 × 10^-3 M, pH 7.1, 16 hrs at 37° C., 7×10^6 cells, control 1.7448): 0.9788 | less SCM factor produced than untreated control cells (MCF7 breast cancer cells; 10^-3 molar, 16-hour incubation): 43.9% | activity at 1000 µM (MCF7 breast cancer cells; Homo sapiens, MCF7, 1 × 10^-3 M, pH 7.1, 16 hrs at 37° C., read-out: Corrected ELISA A405 as % of Control): 56.1%

F-S-W-G-A-E-G-Q-R (FSWGAEGQR) [EAE peptide, experimental allergic encephalitogenic peptide]
SCM factor activity [2]: has no SCM factor activity; also recorded: completely devoid of SCM activity

F-W-G-A-E-G-Q-R (FWGAEGQR)
SCM factor activity [2]: with SCM-factor activity

FLMIDQNTK [F4, F-L-M-I-D-Q-N-T-K]
Percent Cytotoxicity [3, 5]: 48.6 ± 1.3% | Percent Cytotoxicity [3, 6]: 76.2 ± 1.3% | Percent Cytotoxicity [3, 7]: 81.0 ± 1.5%

FLMIDQNTKVPLFMGK [F7]
Percent Cytotoxicity [3, 8]: 72.7 ± 1.0%

FNKPFVFLMIDQNTK [F3, F-N-K-P-F-V-F-L-M-I-D-Q-N-T-K]
Percent Cytotoxicity [3, 6]: 74.5 ± 1.5% | Percent Cytotoxicity [3, 7]: 80.5 ± 1.0%

FNKPFVFLMIDQNTKVPLFMGK [F2, FNKPFVFLMIDQNTKVPLFMGK]
Percent Cytotoxicity [3, 5]: 2.4 ± 0.2% | Percent Cytotoxicity [3, 6]: 14.9 ± 1.5% | Percent Cytotoxicity [3, 7]: 2.6 ± 1.7%

MIPPEVKFNKPFVF [F5, M-I-P-P-E-V-K-F-N-K-P-F-V-F]
Percent Cytotoxicity [3, 6]: 72.7 ± 1.3% | Percent Cytotoxicity [3, 7]: 79.8 ± 0.9%

MIPPEVKFNKPFVFLMDQNTK [F1, MIPPEVKFNKPFVFLMDQNTK]
Percent Cytotoxicity [3, 6]: 78.5 ± 1.0% | Percent Cytotoxicity [3, 7]: 81.0 ± 1.0%

MIPPEVKFNKPFVFLMIDQNTKVPLFMGK [Synthetic SCM Factor, MIPPEVKFNKPFVFLMIDQNTKVPLFMGK]
dose resulting in a 50% decrease in cytotoxicity [3]: 11.5 femtomoles per lymphocyte | quantity required for a 50% decrease of the cytotoxic effect [3]: 11.5 femtomoles | Percent Cytotoxicity: Treated & Washed Lymphocytes ([3]; PBL of healthy donors): 3.0 ± 0.8% | Percent Cytotoxicity [3, 5]: 0.1 ± 0.8% | Percent Cytotoxicity [3, 6]: 3.2 ± 0.1% | Percent Cytotoxicity [3, 7]: 3.1 ± 0.8% | Percent Cytotoxicity: Treated & Washed Lymphocytes ([3]; SCM-R lymphocytes of healthy donors): 0.1 ± 0.9%

VPLFMGK [F8]
Percent Cytotoxicity ([3]; experiment with untreated control 31.0 ± 2.0): 33.0 ± 1.8% | Percent Cytotoxicity [3, 8]: 71.7 ± 1.2%
